Experimental data reported in patent US20090074845A1, “TRANSDERMAL ACTIVE PRINCIPLE DELIVERY MEANS” (priority 2005, published 2009).
Converted amounts (≈) assume the structure as drawn. Like-named read-outs stand apart in the source and are kept apart here.

Assays:
[1] = system: Herpes simplex virus (HSV); experiment: Comparative ICVT-ivities of Digoxin, Digitoxin and Lanoxin; format: cell-based; settings: for ID50: 250 ug per ml stock solutions, powder in 70% ethanol, Lanoxin in 10% ethanol; for ICVT-ivity of saturated solution compared with standard: saturated solutions in 90% ethanol
[2] = system: Herpes simplex virus (HSV); format: cell-based
Experimental: […]. The cardiac glycosides Digoxin, Digitoxin, Lanoxin and Strophanthin G were also tested.
Using Herpes simplex virus (HSV), 50% plaque inhibitory dose (1D50) were established using the standard plaque inhibition assay. Various solvents were required to facilitate testing and these were sometimes detrimental to tissue culture, depending upon their concentration. […]; experimental conditions in which solvent toxicity was excluded.
(§1) These compounds (Acetazolamide, Tolbutamide and Hydrochiorthiazide) were further tested using alternative solvents in the same test system (ie the plaque inhibition assay) and others (Bumetanide, Torasemide, Tolbutamide and Hydrochlothiazide) in a more sensitive test for ICVT activity in which the effects on virus yields were determined.

[3] = system: Herpes simplex virus (HSV); experiment: HSV virus yield test for ICVT activity; format: cell-based
Experimental: as §1

Cytomegalovirus = experiment: 50% plaque inhibitory concentration, Cytomegalovirus in MRC5
[4] = system: Varicella Zoster Virus (Ellen strain)
[5] = Diffusional release of D and F from Collodions; format: physicochemical
Experimental: Drug mix (for composition see table 2) 0.02 g (a stock was made) was weighted on an analytical balance (accurate to 5 decimal places) and added directly to 10 ml of Collodion and 10 ml of ethanol in a McCartney bottle. The molar ratios used were F:D; 1:1, 1:2.5 (2:5) and 1:10 because a smaller amount of drug mix was used, compared to the drug-in-adhesive and this allowed measurable amounts of F to be used. Each of the McCartney bottles was vortexed for three minutes and left to rotate on a blood serum rotator overnight, to ensure that the mixture was homogeneous and that any air bubbles present had dispersed. Control Collodions were also prepared by the same method, however, no drug mix was added.
Different molar ratios of the two drugs were used to determine affect upon release rate and the extent of the release of each drug. The Collodion, 200 μl, was dispensed to the bottom of general 7 ml glass screw cap vials using a Gilson Pipette and left to dry for three hours. Then 2 ml of dissolution medium, again de-gassed EtOH/water 10:90, was added to each vial. The amount of receptor phase sampled and replenished was 200 μl, with a total of five replicates performed for each treatment.
The injection volume of each sample was 20 μl. […] Data were acquired using Agilent software.

MRC5 cells [6] = experiment: MRC5 cell replication; settings: Furosemide 1.0 mg/ml; Digoxin 0.05 ug/ml; both at VZV ID50 concentrations; 72 hours
[7] = 72 hours
Experimental: The receptor fluid was stirred continuously to ensure a homogenous receptor solution.
The drug that accumulated in the skin was also measured. The drug that was present in a 2 cm diameter cross section of skin was calculated for all four formulations.

[8] = cited from earlier work
Herpes simplex virus = experiment: 50% plaque inhibitory concentration, Herpes simplex virus in MRC5
[9] = Solubility of the drugs in a range of solvents
Experimental: A study was performed that measure the solubility of the drugs in a range of solvents.

MRC5 cells [10] = settings: uninfected cells; drug(s) at VZV ID 50 concentrations
[11] = system: type 2 herpes simplex strain 3345; experiment: Inhibition of HSV2 replication in African green monkey kidney cells (Example 3); format: cell-based, herpes simplex virus; settings: for inhibition at 15 µg/mL: Digoxin 15 mcg/ml; for inhibition at 15 µg/mL / inhibition at 30 µg/mL: Furosemide 0 mg/ml; for inhibition at 30 µg/mL: Digoxin 30 mcg/ml; for inhibition at 500 µg/mL / inhibition at 1000 µg/mL: Digoxin 0 mcg/ml, read-out: Inhibition of virus replication; for inhibition at 500 µg/mL: Furosemide 0.5 mg/ml; for inhibition at 1000 µg/mL: Furosemide 1.0 mg/ml
Source text: The compositions were applied to different types of vero cells (African green monkey kidney cells and BHK1 cells) and infected with type 2 herpes simplex virus (strains 3345 and 180) at low, intermediate, and high multiplicities of infection (MOI). Inhibition of virus replication was scored on the scale:
The following results were obtained using African green monkey kidney cells and type 2 herpes simplex strain 3345: […]

[12] = Drug permeation through porcine ear skin (Franz diffusion cells)
Adenovirus = experiment: 50% plaque inhibitory concentration, Adenovirus in A549; settings: unidentified adenovirus
Varicella-Zoster virus = experiment: 50% plaque inhibitory concentration, Varicella-Zoster virus in MRC5
[13] = patches F:D 1:1 across pig skin
Experimental: The ears were washed under running water and full-thickness dorsal skin was separated from the cartilage via blunt dissection using a scalpel, then hair was removed using an electric razor. The skin was cut into samples of approximately 2 cm^2 and visually inspected to ensure that each piece was free from abrasions and blood vessels. Specimens were then stored in a crease free state on aluminium foil at −20° C. until required.
The skin samples were removed from the freezer and left to fully defrost. The donor and receptor compartments of Franz-type diffusion cells (see FIG. 13) were greased, to provide a tight seal and prevent any leakage from the receptor phase. The polymer-lined paper was removed from the patches to expose one side and firmly pressed centrally onto the surface of each piece of skin. After adhesion was established, the skin was mounted onto the flange of a receptor compartment (nominal volume 2.5 ml) of the diffusion sell, ensuring that the patch was placed directly over the flange aperture. […]
D and F were detected using an ultraviolet (UV) detector set at wavelength 220 nm. […]
Chromatogram peaks were integrated manually, and the data corrected for dilution effects. Cumulative release was determined and plotted against the square route of time to determine release rates. Cumulative permeation data were determined and plotted against time to order to obtain flux. […]

[14] = Diffusional release of D and F from drug-in-adhesive patches; format: physicochemical
[15] = Drug release from Glue 1 mass-ratio patches into mobile phase
MRC5 cells [16] = experiment: MRC5 cell morphology (phase contrast microscopy); settings: Furosemide 1.0 mg/ml; Digoxin 0.05 ug/ml; combined dosage at individual ID 50; 72 hours
[17] = Human alphaherpesvirus 2, read-out: Inhibition of virus replication, HIGH MOI HSV2
[18] = Human alphaherpesvirus 2, read-out: Inhibition of virus replication, LOW MOI HSV2
[19] = Human alphaherpesvirus 2, HIGH MOI HSV2
[20] = Human alphaherpesvirus 2, INT. MOI HSV2
[21] = Human alphaherpesvirus 2, LOW MOI HSV2

SMILES: C[C@H]1O[C@@H](O[C@H]2[C@@H](O)C[C@H](O[C@H]3[C@@H](O)C[C@H](O[C@H]4CC[C@@]5(C)[C@H](CC[C@@H]6[C@@H]5CC[C@]5(C)[C@@H](C7=CC(=O)OC7)CC[C@]65O)C4)O[C@@H]3C)O[C@@H]2C)C[C@H](O)[C@@H]1O [Digitoxin]
- ID50 [1]: 30 ng per ml
- ICVT-ivity of saturated solution compared with standard [1]: more effective than Digoxin
- ICVT activity (in words) ([2]; HSV plaque inhibition assay): potent ICVT activity

SMILES: Cc1cccc(Nc2ccncc2S(=O)(=O)NC(=O)NC(C)C)c1 [Torasemide]
- HSV yield ([3]; at 90 μg/ml, Solvent: NaOH 1% aqueous 5 mg/ml): HSV yield unaffected at 90 μg/ml

SMILES: C[C@H]1O[C@@H](O[C@H]2[C@@H](O)C[C@H](O[C@H]3[C@@H](O)C[C@H](O[C@H]4CC[C@@]5(C)[C@H](CC[C@@H]6[C@@H]5C[C@@H](O)[C@]5(C)[C@@H](C7=CC(=O)OC7)CC[C@]65O)C4)O[C@@H]3C)O[C@@H]2C)C[C@H](O)[C@@H]1O [Digoxin]
- IC50 (Cytomegalovirus; Human betaherpesvirus 5, MRC5, read-out: Digixin IC50): 0.02 µg/mL (≈ 0.0256 µM)
- inhibition [4]: ~50%
- maximal dose of digoxin released ([5]; from Collodion after 24 hr): ~34.01 μg cm^−2
- uninfected MRC5 cell replication (MRC5 cells [6]): replicated to normal yields
- concentration at which the skin was saturated [7]: 12.73 μg/cm^2
- concentration at which the skin was saturated ([7]; 2 cm diameter skin section): 40 ug over 3.14 cm^2
- solubility ([8]; in diluted (50%) alcohol and in chloroform): slightly soluble
- solubility ([8]; in pyridine): freely soluble
- solubility ([8]; in water and in ether): practically insoluble
- IC50 (Herpes simplex virus; MRC5, read-out: Digixin IC50): 0.025 µg/mL (≈ 0.032 µM)
- solubility ([9]; Solvent Methanol): 8200 µg/mL (≈ 10500 µM)
- solubility ([9]; organic solvent or mixture, Solubility, Solvent Ethanol): 5080 µg/mL (≈ 6500 µM)
- solubility ([9]; organic solvent or mixture, Solubility, Solvent Ethyl acetate): 20400 µg/mL (≈ 26100 µM)
- MRC5 cell metabolism (MTT assay) (MRC5 cells [10]): normal levels of metabolism
- inhibition at 15 µg/mL [11, 17]: 0%
- inhibition at 30 µg/mL [11, 17]: 0%
- inhibition at 15 µg/mL ([11]; Human alphaherpesvirus 2, read-out: Inhibition of virus replication, INT. MOI HSV2): 0%
- inhibition at 15 µg/mL [11, 18]: 0%
- inhibition at 30 µg/mL [11, 18]: 60%
- loading dose required ([12]; for flux of 1.04 μg per cm^2 per hour (25 μg per day per cm^2)): 6004.5 μg per cm^3
- initial concentration within the patch for the flux to be greater than zero ([12]; from plot of patch concentration vs steady state flux through skin): 804.5 µg/mL
- IC50 (Adenovirus; A549, read-out: Digixin IC50): 0.015 µg/mL (≈ 0.0192 µM)
- Virus particles per cell (feline herpesvirus; Feline herpes virus, drug(s) at IC50, No Drug 50): 0.75
- remaining low level of virus replication (feline herpesvirus; feline herpesvirus, drug at IC50): 0.5%
- production of infectious virus reduced by (feline herpesvirus; feline herpesvirus, drug(s) at IC50): 98.5%
- ID50 [1]: 60 ng per ml
- ICVT-ivity of saturated solution compared with standard [1]: as effective as Lanoxin
- IC50 (Varicella-Zoster virus; Human alphaherpesvirus 3, MRC5, read-out: Digixin IC50): 0.05 µg/mL (≈ 0.064 µM)
- Apparent flux maximum [13]: 3.499 μgcm^−2 h^−1
- Q24 permeation % ([13]; % of loading): 0.12%
- mass/area that permeated the skin (Collodion): 8.02 μg cm^−2
- Apparent maximum flux (Collodion F:D 1:1 across pig skin): 0.313 μgcm^−2 h^−1
- Q24 permeation % (Collodion F:D 1:1 across pig skin, % of loading): 5.39%
- AMF (Collodion, calculated between 12-24 hr): 0.313 μg cm^−2 h^−1
- maximum mass/area of digoxin released (maximal dose) [14]: ~136.18 μgcm^−2
- permeation coefficient for the patch [15]: 1.6e-07 cm/s
- effect on MRC5 cell morphology (MRC5 cells [16]): no adverse effect on cell morphology
- ICVT activity (in words) [2]: potent ICVT activity

SMILES: CCCCNC(=O)NS(=O)(=O)c1ccc(C)cc1 [Tolbutamide]
- concentration at which HSV yield reduced to zero ([3]; Solvent: PEG 10 mg/ml): HSV yield reduced to zero 300 μg/ml
- concentration at which HSV yield reduced to zero ([3]; Solvent: PG 10 mg/ml): HSV yield reduced to zero 300 μg/ml
- ICVT activity (in words) ([2]; HSV plaque inhibition assay): borderline

SMILES: NS(=O)(=O)c1cc(C(=O)O)c(NCc2ccco2)cc1Cl [Furosemide, 4-chloro-N-furfuryl-5-sulfamoylanthranilic acid]
- IC50 (Cytomegalovirus; Human betaherpesvirus 5, MRC5, read-out: Furosemide IC50): 600 µg/mL (≈ 1810 µM)
- Maximal dose released (furosemide) ([5]; from Collodion after 48 hr): ~6.02 μg cm^−2
- IC50 (Herpes simplex virus; MRC5, read-out: Furosemide IC50): 600 µg/mL (≈ 1810 µM)
- inhibition at 500 µg/mL [11, 19]: 0%
- inhibition at 1000 µg/mL [11, 19]: 40%
- inhibition at 500 µg/mL [11, 20]: 20%
- inhibition at 1000 µg/mL [11, 20]: 60%
- inhibition at 500 µg/mL [11, 21]: 20%
- inhibition at 1000 µg/mL [11, 21]: 60%
- IC50 (Adenovirus; A549, read-out: Furosemide IC50): 300 µg/mL (≈ 907 µM)
- IC50 (Varicella-Zoster virus; Human alphaherpesvirus 3, MRC5, read-out: Furosemide IC50): 500 µg/mL (≈ 1510 µM)
- ICVT activity (in words) ([2]; HSV plaque inhibition assay): potent ICVT activity

SMILES: CC(=O)Nc1nnc(S(N)(=O)=O)s1 [Acetazolamide]
- ICVT activity (in words) ([2]; HSV plaque inhibition assay): borderline

SMILES: NS(=O)(=O)c1cc2c(cc1Cl)NCNS2(=O)=O [Hydrochiorothiazide, Hydrochlorothiazide]
- concentration at which HSV yield reduced to zero ([3]; Solvent: NaOH 1% aqueous 10 mg/ml): HSV yield reduced to zero at 600 ug/ml
- ICVT activity (in words) ([2]; HSV plaque inhibition assay): borderline

SMILES: C[C@@H]1O[C@@H](O[C@H]2C[C@@H](O)[C@]3(CO)[C@H]4[C@H](O)C[C@]5(C)[C@@H](C6=CC(=O)OC6)CC[C@]5(O)[C@@H]4CC[C@]3(O)C2)[C@H](O)[C@H](O)[C@H]1O [Strophanthin G]
- remark on toxicity at the HSV Plaque ID50 ([2]; 1 mg/ml, Solvent: Aqueous): Cytotoxic
